This note sets out measurements from patent EP1021178B1, “SELENOPHENE ANTI-TUMOR AGENTS” (Purdue Research Foundation, priority 1996, dated 1997).

What all share (test): NCI human tumor cell panel
Test [1] relates to TK-10. Particulars: TK-10, read-out: Log10 LC50 (converted).
The test system of test [2] is HCC-2998. Type of test: cell-based. As to conditions: HCC 2998, read-out: Log10 LC50 (converted). The source says: (§1) Considering the diversity of tumors in terms of cell type, morphology, growth rate and other cellular characteristics, the U.S. National Cancer Institute (NCI) has developed a "disease-oriented" approach to antitumor activity screening (M.R. Boyd, in "Principle of Practice of Oncology" J.T. Devita, S. Hellman, S.A. Rosenberg (Eds.) Vol. 3, PPO Update, No. 10, 1989). This in vitro prescreening system is based on the measurement of antitumor cytotoxicity against human tumor cell line panels consisting of approximately 60 cell lines of major human tumors (including leukemia and slower growing tumor cells such as lung, colon, breast, skin, kidney, etc.). The most important advantage of the new in vitro screening panels is the opportunity to identify compounds that are selectively more cytotoxic to cells of slowly growing solid tumors than to rapidly growing leukemia cells.
(§2) The cytotoxic activity of the present selenophene compounds have been measured utilizing two different assays or screens. The first screen measures the cytotoxicity against a panel of sixty different human tumor cell lines. This assay provides data regarding the general cytotoxicity of an individual compound. In particular this type of assay is useful in identifying compounds which have enhanced cytotoxic activity against slow growing tumors as compared to faster growing tumor cells such as leukemia tumor cell lines. The identification of such compounds is critical since previously identified antitumor agents have low cytotoxic activity against slower growing tumors. […] The specificity of a cytotoxic compound for tumor cell lines relative to normal cells is an important characteristic of an effective antitumor agent.
(§3) Antitumor cytotoxicity data generated from the National Cancer Institute human tumor cell panels can also be expressed in a graphic pattern (mean graph) to display differential cell growth inhibition (K.D. Paull, R.H. Shoemaker, L. Hodes, A. Monks, D.A. Scudiero, L. Rubinstein, J. Plowman and M.R. Boyd, J. Nail. Cancer Inst., 81, 1088, 1989.) In the mean graph, the arithmetic mean of the logarithm of the GI50 (50% growth inhibition), TGI (total growth inhibition) or LC50 (50% lethal concentration) values is used as an anchor point. […] The length of a bar is indicative of differential cytotoxicity against a specific type of tumor cells or tumor panels.
(§4) The antitumor cytotoxicity of the selenophene compounds tested in those in vitro assays was measured by a microculture assay using either a 3-(4,5-dimethylthiazol-2-yl)-2,5-diphenyltetrazolium bromide (MTT) or sulforhodamine B (SRB) based assay. [M.R. Boyd in "Principles and Practices of Oncology," V.T. DeVita, Jr.]. The experiments were conducted at Purdue University in 96-well microtiter plates and the cytotoxic effects of the selenophene compounds on those cells were measured by cell count using a Coulter Z.F. counter (Hialeah, FL). The results are expressed as GI50, the concentration of drug at which cell numbers are reduced to 50% of control cell culture [T.C.K. Chan, C.J. Chang, N.M. Koonchanok and R.L. Geahlen, Biochem. Biophys. Res. Commun., 193, 1152, (1993); S. Hellman and S.A. Rosenberg (Eds.), Vol. 3, PPO Updates, Number 10, (1989).]
(§5) This in vitro microculture assay has an advantage over in vivo assays in that results are obtained within a week as opposed to several months. The MTT assay is based on the production of a dark blue formazan product by dehydrogenase in the mitochondria of live tumor cells after exposure to drug for 6 days [M.C. Alley, D.A. Scudiero, A. Monks, M.L. Hursey, M.J. Czerwinski, D.L. Fine, B.J. Abbott, J.G. Mayo, R.H. Shoemaker and M.R. Boyd, Cancer Res., 48, 589, 1988]. Thus, only live cells are stained and can be measured at 570 nm. […]

Test [3] relates to KM12. Type of test: cell-based. Particulars: KM12, read-out: Log10 LC50 (converted).
Description: as §1, §2, §3, §4, §5

For test [4], the system named is A498. Type of test: cell-based. Particulars: A498, read-out: Log10 LC50 (converted).
Description: as §1, §2, §3, §4, §5

Test [5] concerns U251. Type of test: cell-based. As to conditions: U-251, read-out: Log10 LC50 (converted).
Description: as §1, §2, §3, §4, §5

Test [6] deals with UACC-62. Type of test: cell-based. As to conditions: UACC-62, read-out: Log10 LC50 (converted).
Description: as §1, §2, §3, §4, §5

Test [7] deals with SK-MEL-2. Type of test: cell-based. As to conditions: SK-MEL-2, read-out: Log10 LC50 (converted).
Description: as §1, §2, §3, §4, §5

The test system of test [8] is SK-MEL-28. Type of test: cell-based. Particulars: SK-MEL-28, read-out: Log10 LC50 (converted).
Description: as §1, §2, §3, §4, §5

Test [9] relates to HOP-62. Type of test: cell-based. Particulars: HOP-62, read-out: Log10 LC50 (converted).
Description: as §1, §2, §3, §4, §5

Test [10] concerns NCI-H23. As to conditions: for CC50: NCI-H23, read-out: Log10 LC50 (converted); for IC (TGI): NCI-H23, read-out: Log10 TGI.
Test [11] concerns OVCAR-3. As to conditions: OVCAR-3, read-out: Log10 LC50 (converted).
The test system of test [12] is SNB-75. Particulars: SNB-75, read-out: Log10 LC50 (converted).
Test [13] relates to OVCAR-8. As to conditions: OVCAR-8, read-out: Log10 LC50 (converted).
The test system of test [14] is MALME-3M. As to conditions: for CC50: read-out: Log10 LC50 (converted).
Test [15] relates to SF-295. As to conditions: for CC50: SF-295, read-out: Log10 LC50 (converted).
In test [16] the test system is UO-31. As to conditions: UO-31, read-out: Log10 LC50 (converted).
Test [17] deals with SNB-19. As to conditions: for CC50: SNB-19, read-out: Log10 LC50 (converted).
The test system of test [18] is EKVX. As to conditions: for CC50: read-out: Log10 LC50 (converted).
Test [19] deals with MDA-MB-435. Particulars: MDA-MB-435, read-out: Log10 LC50 (converted).

In the case of `O=Cc1ccc(-c2ccc(-c3ccc(C=O)[se]3)s2)s1`, the CC50 in test [1] is 61.7 µM; in [2], > 100 µM; in test [3], > 100 µM; in test [4] it was 0.331 µM; in test [5] it was > 100 µM; in test [6], > 100 µM. Further, the CC50 in [7], in test [8], in [9], in [10], in test [11] and in test [12] was > 100 µM each time. Further, the CC50 in test [13], in test [14], in test [15], in test [16], in test [17] and in [18] was > 100 µM each time. Also, the CC50 in [19] is > 100 µM. For the same molecule, the IC (TGI) was > 100 µM in [10]; > 100 µM in test [15] (SF-295, read-out: Log10 TGI); > 100 µM in test [17] (SNB-19, read-out: Log10 TGI).
Regarding `OCc1ccc(-c2ccc(-c3ccc(CO)[se]3)s2)s1`, the CC50 was 64.6 µM in [1]; 44.7 µM in [2]; > 100 µM in [3]; 0.0724 µM in test [4]; 72.4 µM in [5]; > 100 µM in [6]. Also, the CC50 is > 100 µM in test [7]; > 100 µM in test [8]; 85.1 µM in [9]; > 100 µM in test [10]; 50.1 µM in test [11]; > 100 µM in test [12]. Also, the CC50 in [13], in [14], in test [15], in test [16], in test [17] and in test [18] was > 100 µM throughout. Also, the CC50 in [19] was > 100 µM.
For `OCc1ccc(-c2ccc(-c3ccc[se]3)s2)[se]1`, the CC50 in [1] is 72.4 µM; in test [2], > 100 µM; in test [3] it was > 100 µM; in test [4], 0.302 µM; in [5], 44.7 µM; in test [6], > 100 µM. Further, the CC50 in [7] is > 100 µM; in test [8] it was > 100 µM; in [9], > 100 µM; in [10] it was 91.2 µM; in [11], 40.7 µM; in test [12], > 100 µM. Further, the CC50 in [13], in [14], in test [15], in test [16], in test [17] and in test [18] was > 100 µM throughout. Moreover, in test [19], the CC50 is > 100 µM. Moreover, the IC (TGI) in test [14] (read-out: Log10 TGI) is > 100 µM.
Consider `OCc1ccc(-c2ccc(-c3ccc[se]3)[se]2)[se]1`, for which the CC50 in [1] is > 100 µM; in [2] it was 53.7 µM; in test [3] it was 52.5 µM; in test [4], 0.692 µM; in test [5], 55 µM; in test [6], 67.6 µM. Besides, the CC50 in test [7] is 69.2 µM; in [8] it was 53.7 µM; in test [9] it was 44.7 µM; in [10], 70.8 µM; in test [11], 6.92 µM; in test [12] it was > 100 µM. Moreover, the CC50 in test [13] is > 100 µM; in [14] it was 50.1 µM; in [15], 72.4 µM; in [16] it was > 100 µM; in [17], > 100 µM; in [18], 42.7 µM. Moreover, the IC (TGI) in [10] is 30.9 µM.
Turning to `OCc1ccc(-c2ccc(-c3ccc(CO)s3)[se]2)s1`, the CC50 is > 100 µM in test [1]; > 100 µM in [2]; > 100 µM in test [3]; 0.158 µM in test [4]; > 100 µM in test [5]; > 100 µM in [6]. Moreover, the CC50 in [7], in test [8], in test [9], in test [10], in test [11] and in [13] was > 100 µM in each case. Moreover, the CC50 in test [14], in test [15], in test [16], in test [17], in test [18] and in test [19] was > 100 µM in each case.
With `O=Cc1ccc(-c2ccc(-c3ccc(C=O)[se]3)s2)[se]1`, the CC50 in test [1], in test [2], in test [3], in test [5], in test [6] and in [7] was > 100 µM throughout. In addition, the CC50 in test [8], in test [9], in test [10], in test [11], in test [12] and in [13] was > 100 µM in each case. For the same molecule, the CC50 in [14], in test [15], in [16], in test [17], in [18] and in test [19] was > 100 µM throughout. Also, the IC (TGI) in [18] (read-out: Log10 TGI) was > 100 µM.
Turning to `O=Cc1ccc(-c2ccc(-c3ccc(C=O)s3)[se]2)s1`, the CC50 in test [1] is > 100 µM; in [2], 74.1 µM; in [3], > 100 µM; in [4], 4.07 µM; in [5] it was 89.1 µM; in [6], > 100 µM. The CC50 in test [7] is > 100 µM; in test [8], > 100 µM; in [9], > 100 µM; in test [10] it was > 100 µM; in [11], 4.07 µM; in test [12], > 100 µM. In addition, the CC50 in [13], in test [14], in test [15], in test [17], in test [18] and in test [19] was > 100 µM each time.
